{"source": "patent US10517889B2", "about": "“Modulators of SMAD7 expression” (Ionis Pharmaceuticals, Inc., priority 2017, dated 2019)", "test_system": "human SMAD7 mRNA", "assay": "Dose-dependent inhibition of human SMAD7 mRNA expression in Hep3B cells, comparison with ION 28453 (Example 4)", "format": "cell-based", "conditions": "electroporation, approximately 16 hours", "procedure": "Cells were plated at a density of 20,000 cells per well and transfected using electroporation with 0.25 μM, 0.74 μM, 2.22 μM, 6.67 μM, or 20.00 μM concentrations of antisense oligonucleotide, as specified in the Tables below. After a treatment period of approximately 16 hours, RNA was isolated from the cells and SMAD7 mRNA levels were measured by quantitative real-time PCR. Primer probe set RTS5062 was used to measure human SMAD7 mRNA levels. SMAD7 mRNA levels were adjusted according to total RNA content, as measured by RIBOGREEN®. Results are presented as percent inhibition of SMAD7 mRNa expression, relative to untreated control cells.\nThe half maximal inhibitory concentration (IC50) of each oligonucleotide is also presented. […] Several newly designed antisense oligonucleotides had greater potency than the previously disclosed lead compound, ION 28453.", "note": "pIC50: −log10 of the molar value.", "data": [{"substance": "798781 (CGTAAGATTCACAGCA; 3-10-3 cEt gapmer, further chemistry not given here) [compound 798781]", "values": [{"measurement": "% inhibition of SMAD7 mRNA expression", "setting": "0.25 μM", "value": 12, "unit": "%"}, {"measurement": "% inhibition of SMAD7 mRNA expression", "setting": "0.74 μM", "value": 38, "unit": "%"}, {"measurement": "% inhibition of SMAD7 mRNA expression", "setting": "2.22 μM", "value": 66, "unit": "%"}, {"measurement": "% inhibition of SMAD7 mRNA expression", "setting": "6.67 μM", "value": 66, "unit": "%"}, {"measurement": "% inhibition of SMAD7 mRNA expression", "setting": "20.00 μM", "value": 87, "unit": "%"}, {"measurement": "pIC50", "setting": "SMAD7 mRNA", "value": 5.70}]}]}
